Assay results from patent publication US20100190733A1, “Methods of Treating Muscular Dystrophies” (Primus Pharmaceuticals, Inc., priority 2009, published 2010).

Assays:
mdx mice [1] = details: previous studies (Ref. 38 and 39); cited from earlier work
mdx mice [2] = assay: Histological studies of biceps muscle, Example 2; format: in vivo; details: genistein 2 mg/kg/ip daily for 5 weeks vs vehicle
Method: (§1) Mdx animals were purchased from Charles River Italy (Calco, Milan, Italy). Animals were 4 weeks old on arrival and were acclimatized for 5 days before the study. At the beginning of the experiment the mice, which were at that point 5 weeks old, weighted about 20-22 grams. The mice were treated daily for 5 weeks with either the phytoestrogen genistein (Sigma, Mo., USA) at a dose of 2 mg/kg/ip or its vehicle (1:3 DMSO: 0.9% NaCl solution).
Transverse cryostat sections 10 μm thick were obtained from the midpoint of the biceps and TA muscle body. The whole muscle cross sections (corresponding to a mean area of 2.10 mm^2 in biceps and 2.25 mm^2 in TA) were stained with hematoxylin-eosin and were examined by a blinded observer using the AxioVision 2.05 image analysis system equipped with an Axiocam camera scanner (Zeiss, Munchen, Germany). The following four areas with patchy distribution were recognized: 1) normal fibers identified by the presence of peripheral nuclei; 2) necrotic fibers identified by pale cytoplasm and phagocytosis; 3) regenerating fibers identified by small size, central nuclei with/without basophilic cytoplasm; 4) centrally nucleated fibers identified by normal size but with central nuclei. The area occupied by normal fibers, necrotic fibers, regenerating fibers, or centrally nucleated fibers was expressed as a percentage of the area of the whole muscle cross section.

mdx mice [3] = assay: Serum creatine kinase (CK) evaluation, Example 2; format: in vivo; details: genistein 2 mg/kg/ip daily for 5 weeks vs vehicle
Method: as §1
Blood samples were centrifuged at 6000 g and the serum was stored at −80° C. until the day of analysis. Serum CK was evaluated at 37° C. using a commercially available kit (Randox Laboratories LTD, Antrim, UK). The results are expressed as U/L.

mdx mice [4] = assay: Immunohistochemistry of biceps (myogenin, dMHC), Example 2; format: in vivo; details: genistein 2 mg/kg/ip daily for 5 weeks vs vehicle
[5] = tested on: Extensor digitorum longus muscles (EDL) of mdx mice; assay: Electrophysiological studies of isolated EDL muscle, Example 2; format: in vivo; details: genistein 2 mg/kg/ip daily for 5 weeks vs vehicle
Method: as §1
Extensor digitorum longus muscles (EDL) were vertically mounted in a temperature controlled (30°) chamber containing Krebs Ringer bicarbonate buffer (Sigma k4002) and continuously gassed with a mixture of 95% O2 and 5% CO2. One end of the muscle was linked to a fixed clamp while the other end was connected to the lever-arm of an Aurora Scientific Instruments 300B actuator/transducer system using a nylon wire. […] For each experiment, the initial muscle length was adjusted to the length (L0) which produced the highest twitch force. The optimal fiber length (Lf) was determined by multiplying the value of L0 for the fiber length by the muscle length ratio (0.44 for the EDL and 0.71 for soleus). The muscle cross-sectional area (CSA) was determined for the EDL and soleus by dividing the muscle mass (m) by the product of the Lf and the density of mammalian skeletal muscle (1.06 mg/mm^3).
In order to measure force generation, the muscle was initially stimulated with two 0.5 ms single pulses (with a rest time of 150 s) to measure twitch force, twitch force/cross sectional area (CSA), and contraction time (the time that the isolated muscle needs to reach the peak force after delivery of a single electrical pulse).
In order to measure high-stress eccentric contractions, the muscle was stimulated with five tetanic stimulations (train of 0.1 ms pulses delivered at 180 Hz, for 0.6 s) to evaluate the maximum isometric force (and maximum force/cross sectional area (CSA)) and the decline in maximal isometric force. The latter was measured by dividing the force value at the last stimulation (F5) by the force value at the first stimulation (F1), and used as a index of myofiber injury caused by high-stress contractions.

mdx mice [6] = assay: Forelimb strength and fatigue by grip meter, Example 2; format: in vivo; details: genistein 2 mg/kg/ip daily for 5 weeks vs vehicle
Method: as §1
(§2) Mice were weighed and examined for forelimb strength at baseline and at the end of the experiment. Strength testing consisted of five separate measurements using a grip meter attached to a force transducer that measures the peak force generated (Stoelting Co., Wooddale Ill., USA). Specifically, the mouse grabbed the trapeze bar as it is pulled backward and the peak pull force in grams is recorded on a display. The three highest measurements for each animal were averaged to give the strength score.
The degree of fatigue was calculated by comparing the first two pulls to the last two pulls. The decrease between pulls 1+2 and pulls 4+5 provided the measure of fatigue.

NF-κB = NF-κB activation (EMSA) in skeletal muscle, Example 2; format: in vivo; details: mdx mice skeletal muscle, genistein 2 mg/kg/ip daily for 5 weeks vs vehicle
Method: as §1
Isolation of nuclear proteins in approximately 50 mg of frozen skeletal muscle tissue was performed according to recently detailed method (See ref 15 below). Twenty micrograms of nuclear extract were incubated for 30 min at room temperature with 50 fmol of biotin-end-labeled 45-mer double-strand NF-κB oligonucleotide from the HIV long terminal repeat, 5-[…] GGCGTGGG-3 containing 2(underlined) NF-κB binding sites. Both complimentary oligos were end-labeled separately and then annealed prior to use. […] The results were expressed as relative integrated intensity compared with normal controls, considering exposure time, background levels and known protein concentration of an Epstein Barr virus nuclear antigen-1 extract, which was used as EMSA control.

Body weight, Example 2 = format: in vivo; details: mdx mice, genistein 2 mg/kg/ip daily for 5 weeks vs vehicle
Method: as §1, §2

mdx mice [7] = details: previous studies (Ref. 36-37); cited from earlier work
WT and mdx mice [8] = assay: Serum creatine kinase (CK) evaluation, Example 1; format: in vivo; details: after 5 weeks daily i.p. treatment, mean±SD
Method: (§3) Five-week old mdx and WT mice were treated for 5 weeks with daily 100 μl intraperitoneal injections with either flavocoxid (a mixture of catechin and baicalin) (n=8, 5 mg/kg), methylprednisolone (n=8, 0.75 mg/Kg) or vehicle (n=8, 33% (v/v) dimethylsulphoxide (DMSO) in 0.9% NaCl). At the end of the experiments, animals were anaesthetized with intraperitoneal administration of sodium penthobarbital (80 mg/kg). Blood was then collected by intracardiac puncture and used to analyze creatine kinase (CK) levels. The biceps, quadriceps and extensor digitorum longus (EDL) muscles were removed bilaterally and immediately frozen in liquid nitrogen-cooled isopentane and stored at −80° C. for histological and biochemical evaluations.
Blood samples were centrifuged at 6,000 RPM and the serum stored at −80° C. until the day of analysis. Serum CK was evaluated at 37° C. using a commercially available kit (Randox Laboratories LTD, Crumlin, Co. Antrim U.K). The results were expressed as U/L.

WT and mdx mice [9] = assay: Forelimb strength and fatigue by grip meter, Example 1; format: in vivo; details: flavocoxid 5 mg/kg, methylprednisolone 0.75 mg/Kg
Method: as §3
(§4) Mice were weighed and examined for forelimb strength at baseline and after 5 weeks of treatment. Strength testing consisted of five separate measurements using a grip meter attached to a force transducer that measures peak force generated (Stoelting Co, Wooddale Ill., USA). Briefly, the mouse grabed the trapeze bar as it was pulled backward and the peak pull force in grams was recorded on a display upon release by the animal. The three highest measurements for each animal were averaged to give the strength score. The degree of fatigue was calculated by comparing the first two pulls to the last two pulls. The decrement between pulls 1+2 and pulls 4+5 gave the measure of fatigue.

Body weight, Example 1 = format: in vivo; details: WT mice, after 5 weeks daily i.p. treatment, compared to WT mice treated with vehicle
Method: as §3
as §4, with “The decrement between pulls 1+2 and pulls 4+5 gave the measure of fatigue.” left out

[10] = tested on: muscle regeneration after traumatic injury; details: systemic administration (Ref. 21); cited from earlier work
[11] = end of 5 weeks daily i.p. treatment

## O=C(O[C@@H]1Cc2c(O)cc(O)cc2O[C@@H]1c1cc(O)c(O)c(O)c1)c1cc(O)c(O)c(O)c1 [epigallocatechin gallate]
Mdx mice [1]
  effect on mdx mice: beneficial effect

## O=c1c(-c2ccc(O)cc2)coc2cc(O)cc(O)c12 [genistein, 5,7-Dihydroxy-3-(4-hydroxyphenyl)chromen-4-one]
Mdx mice [2]
  necrosis in the biceps: decreased
  percentage of centrally nucleated fibers in the biceps: not found to modify
  percentage of normal muscular area in the biceps: not found to modify
  percentage of regenerating fibers in the biceps: increased
Mdx mice [3]
  CK levels: statistically significant reduction
Mdx mice [4]
  myogenin expression in the nuclei of muscles: significantly increased
  number of dMHC positive fibers: not found to modify
  number of myogenin positive satellite cells (SC): not found to modify
[5]
  contraction time: not found to modify
  decline of maximal isometric force (F5/F1 after five tetanic stimulations): reduced
  maximum force/CSA: not found to modify
  twice force/CSA: not found to modify
  twitch force: not found to modify
Mdx mice [6]
  forelimb strength: significantly augmented
  level of fatigue: slightly lower
  strength normalized to weight: higher
NF-κB
  NF-κB activation: significantly decreased
Body weight, Example 2
  body weight: not significantly different

## CC(=O)SCCC1Cc2c(C)c(OC(=O)CCC(=O)O)c(C)c(C)c2O1 (racemic) [IRFI-042, (±)-5-emisuccinoyl-2-[2-(acetylthio)ethyl]-2,3-dihydro-4,6,7-trimethylbenzofuran]
Mdx mice [7]
  effects on functional, biochemical and morphological parameters of mdx mice muscle fibers: beneficial effects

## C[C@H]1C[C@@H]2[C@H]([C@@H](O)C[C@@]3(C)[C@H]2CC[C@]3(O)C(=O)CO)[C@@]2(C)C=CC(=O)C=C12 [methylprednisolone]
WT and mdx mice [8]; WT mice
  serum CK levels: 365±28 U/L
WT and mdx mice [8]; mdx mice
  serum CK levels: 1737±103 U/L
WT and mdx mice [9]; after 5 weeks daily i.p. treatment
  fatigue levels compared to vehicle-treated mdx: −13%
WT and mdx mice [9]; [11]
  forelimb strength compared to vehicle-treated mdx mice: +30%
  strength normalized to weight compared to vehicle-treated mdx mice: +27%
Body weight, Example 1
  body weight: increase in body weight

## COc1cc(/C=C/C(=O)CC(=O)/C=C/c2ccc(O)c(OC)c2)ccc1O [curcumin]
[10]
  muscle regeneration after traumatic injury: stimulates muscle regeneration

## S=C(S)N1CCCC1 [pyrrolidine dithiocarbamate]
Mdx mice [7]
  effects on functional, biochemical and morphological parameters of mdx mice muscle fibers: beneficial effects
